This passage reports IC50 results from patent US12162878B2 (HINOVA PHARMACEUTICALS INC., priority 2018, dated 2024).

One test addresses BRD2(1,2) (Homo sapiens (Human), UniProt P25440). Nature of the test: AlphaScreen binding of compounds on BRD2 (D1+D2). The following applies: read-out: IC50 against BRD2(1,2). The text has this:
(§1) Homogeneous time-resolved fluorescence technology (HTRF) was used to determine the binding effect of compounds on BRD4 (D1+D2) and BRDT (D1) proteins, as well as AlphaScreen method was used to detect the binding effect of compounds on BRD2 (D1+D2) and BRD3 (D1+D2) proteins.
(§2) The compounds were screened in vitro, and each compound was serially diluted to 10 concentrations. Four proteins BRD4 (D1+D2), BRDT (D1), BRD2 (D1+D2) and BRD3 (D1+D2) were chosen to determine the IC50 values of compounds (see Table 1).
(§3) 4. Compound treatment: The test compound was dissolved in dimethyl sulfoxide (DMSO), and the storage concentration was 10 mM.
(§4) 6. AlphaScreen Detection Procedures:
(§5) 1) Preparing One-Fold Concentration of Detection Buffer
(§6) One-fold concentration of detection buffer was prepared (Improved HEPES buffer)
(§7) 2) Gradient Dilution of Compounds
(§8) Echo automatic sampler was used to transfer the compound to the detection plate for gradient dilution, so that the final concentration of dimethyl sulfoxide was 0.1%.
(§9) 3) Preparation of Protein Solution
(§10) The protein was dissolved in one-fold concentration of detection buffer.
(§11) 4) Preparation of Substrate Solution
(§12) The peptide was dissolved in one-fold concentration of detection buffer to prepare the substrate solution.
(§13) 5) 5 μL protein solution was transferred to the detection plate, and one-fold concentration of detection buffer (5 μL) was placed in the negative control wells.
(§14) 6) The plate was incubated for 15 min at room temperature.
(§15) 7) 5 μL substrate solution was added to each well to start the reaction.
(§16) 8) The plate was incubated for additional 60 min at room temperature.
(§17) 9) Preparation of acceptor solution and donor solution in one-fold concentration of assay buffer Acceptor solution (15 μL) and donor solution (15 μL) were respectively added, and then incubated at room temperature for 60 min and protected against exposure to light.
(§18) 10) The endpoint was read in EnSpire and Alpha mode.
(§19) The experimental data were recorded in an Excel file and equation (1) was used to get the inhibition rate. Inh%=(Max−Signal)/(Max−Min)*100 Equation (1):
(§20) The obtained data were input into GraphPad software, and equation (2) was used to obtain the IC50 value. Y=Bottom+(Top−Bottom)/(1+10^((Log IC50−X)*Hill Slope)) Formula (2): […]
(§21) Wherein, Y axis was the inhibition rate, and the X axis was the compound concentration.

Another test concerns the target BRD4(1,2) (Homo sapiens (Human), UniProt O60885). Nature of the test: HTRF binding of compounds on BRD4 (D1+D2). The following applies: read-out: IC50 against BRD4(1,2).
Description: as §1, §2, §3
(§22) 5. Steps for Homogeneous Time-Resolved Fluorescence Detection:
(§23) 1) According to the arrangement of the detection plate, all compounds were diluted in Echo plate.
(§24) The final dilution concentration of DMSO is 0.1%.
(§25) 2) The compound or DMSO was transferred to a 384-well detection plate with the Echo automatic sampler.
(§26) 3) Two-fold concentration of the mixture of protein and peptide was added to the detection plate.
(§27) 4) Two-fold concentration of mixed detection solution was added to the test plate, and shaken for 30 s.
(§28) 5) Incubating for 2 h at room temperature.
(§29) 6) Fluorescence signal was read on Envision multi-function microplate reader (excitation light wavelength being 340 nm, and emission light wavelength being 615 nm and 665 nm).
(§30) The experimental data were recorded in an Excel file, and equation (1) was used to obtain the inhibition rate. Inh%=(Max−Signal)/(Max−Min)*100 Equation (1):
(§31) The obtained data was recorded in GraphPad software, and equation (2) was used to provide the IC50 values. Y=Bottom+(Top−Bottom)/(1+10^((Log IC50−X)*Hill Slope)) Equation (2): […]
(§32) Y axis was the inhibition rate, and X axis was the compound concentration.

The next test addresses BRD3(1,2) (Homo sapiens (Human), UniProt Q15059). Nature of the test: AlphaScreen binding of compounds on BRD3 (D1+D2). The following applies: read-out: IC50 against BRD3(1,2).
Description: as §1, §2, §3, §4, §5, §6, §7, §8, §9, §10, §11, §12, §13, §14, §15, §16, §17, §18, §19, §20, §21

Another test addresses BRDT(D1) (Homo sapiens (Human), UniProt Q58F21). As to the kind of experiment: HTRF binding of compounds on BRDT (D1). To be noted: read-out: IC50 against BRDT(D1).
Description: as §1, §2, §3, §22, §23, §24, §25, §26, §27, §28, §29, §30, §31, §32

The next test deals with CWR22RV1 cells. Nature of the test: Inhibition of proliferation of CWR22RV1 cells (CCK-8). In kind it is cell-based, human. To be noted: Homo sapiens, 6 days. The procedure, abridged: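 Cells seeded at 1500/well, cultured overnight, then exposed to compounds in 3-fold dilutions (9 concentrations from 10 μM top final, 0.1% DMSO) for 6 days at 37 °C. Viability read by CCK-8 absorbance at 450 nm after 2.5 h; IC50 from dose-response inhibition fit.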

Where “and” joins values, the source holds several entries; their conditions need not be identical. Equal entries are not always repeated.

Chain of BRD3(1,2) (Q15059 29-417): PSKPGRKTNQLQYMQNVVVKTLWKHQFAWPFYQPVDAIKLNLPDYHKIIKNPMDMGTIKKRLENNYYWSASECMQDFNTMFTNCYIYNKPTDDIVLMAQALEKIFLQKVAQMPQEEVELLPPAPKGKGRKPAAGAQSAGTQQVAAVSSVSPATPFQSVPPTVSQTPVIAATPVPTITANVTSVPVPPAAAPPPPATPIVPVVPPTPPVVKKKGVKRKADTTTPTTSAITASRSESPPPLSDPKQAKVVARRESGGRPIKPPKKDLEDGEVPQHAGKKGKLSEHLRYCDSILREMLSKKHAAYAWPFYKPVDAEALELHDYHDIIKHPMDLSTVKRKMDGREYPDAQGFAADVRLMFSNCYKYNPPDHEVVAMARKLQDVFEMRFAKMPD
Chain of BRD2(1,2) (P25440 65-459): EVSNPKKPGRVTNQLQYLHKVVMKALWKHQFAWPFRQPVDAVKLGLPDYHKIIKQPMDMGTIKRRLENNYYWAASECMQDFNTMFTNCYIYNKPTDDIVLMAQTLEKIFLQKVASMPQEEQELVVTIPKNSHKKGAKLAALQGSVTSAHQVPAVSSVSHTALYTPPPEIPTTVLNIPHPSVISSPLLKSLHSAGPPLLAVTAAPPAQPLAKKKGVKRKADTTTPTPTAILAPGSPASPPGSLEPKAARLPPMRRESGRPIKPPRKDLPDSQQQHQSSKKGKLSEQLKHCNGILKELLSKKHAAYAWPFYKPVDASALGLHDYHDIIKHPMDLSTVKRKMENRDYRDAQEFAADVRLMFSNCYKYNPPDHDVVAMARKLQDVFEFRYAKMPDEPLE

Take `[2H]C([2H])([2H])n1cc(-c2cc(S(=O)(=O)C(C)(C)C(=O)O)ccc2N2CCC3(CC2)CC3(F)F)c2cc[nH]c2c1=O` [Compound 239, 2-((4-(1,1-difluoro-6-aza-spiro[2.5]octan-6-yl)-3-(6-trideuteromethyl-7-oxo-6,7-dihydro-1H-pyrrolo[2,3-c]pyridin-4-yl)phenyl)sulfonyl)-2-methylpropionic acid]: the IC50 at BRD2(1,2) was found to be 3 nM; on BRD4(1,2) it was 14 nM; at BRD3(1,2), 5.2 nM; on BRDT(D1), 18 nM; in the test on CWR22RV1 cells (CWR22Rv1, 144 h) it was 7.8 nM.
For the molecule `[2H]C([2H])([2H])n1cc(-c2cc(S(N)(=O)=O)ccc2N2CCC3(CC2)CC3(F)F)c2cc[nH]c2c1=O` [Compound 251, 4-(1,1-difluoro-6-aza-spiro[2.5]octan-6-yl)-3-(6-trideuteromethyl-7-oxo-6,7-dihydro-1H-pyrrolo[2,3-c]pyridin-4-yl)benzenesulfonamide], the IC50 at BRD2(1,2) was found to be 1.2 nM; on BRD4(1,2), 3.4 nM; at BRD3(1,2) it was 3.9 nM; on BRDT(D1), 13 nM.
Regarding `[2H]C([2H])([2H])n1cc(-c2cc(S(=O)(=O)N(C)C)ccc2N2CCC3(CC2)CC3(F)F)c2cc[nH]c2c1=O` [Compound 204, 4-(1,1-difluoro-6-aza-spiro[2.5]octan-6-yl)-N,N-dimethyl-3-(6-trideuteromethyl-7-oxo-6,7-dihydro-1H-pyrrolo[2,3-c]pyridin-4-yl)benzenesulfonamide], the IC50 at BRD2(1,2) is 6.5 nM; on BRD4(1,2), 10 nM; at BRD3(1,2), 7.4 nM; on BRDT(D1) it was 19 nM; in the test with CWR22RV1 cells (CWR22Rv1, 144 h), 0.7 nM.
As for `CCS(=O)(=O)Nc1ccc(N2CCC3(CC2)CC3(F)F)c(-c2cn(C)c(=O)c3[nH]ccc23)c1` [Compound 193, N-(4-(1,1-difluoro-6-aza-spiro[2.5]octan-6-yl)-3-(6-methyl-7-oxo-6,7-dihydro-1H-pyrrolo[2,3-c]pyridin-4-yl)phenyl)ethanesulfonamide], the IC50 amounted to 2.7 nM on BRD2(1,2); 14 nM at BRD4(1,2); 5.8 nM at BRD3(1,2); 32 nM on BRDT(D1); 4 nM in the test with CWR22RV1 cells (CWR22Rv1, 144 h).
In the same order, the values of `[2H]C([2H])([2H])n1cc(-c2cc(S(=O)(=O)N3CC[C@H](O)C3)cnc2N2CCC3(CC2)CC3)c2cc[nH]c2c1=O` [Compound 243] are 1.4 nM, 8.9 nM, 5.3 nM, 19 nM and 1.3 nM.
Consider `[2H]C([2H])([2H])n1cc(-c2cc(S(=O)(=O)CC)cnc2N2CCC3(CC2)CC3(F)F)c2cc[nH]c2c1=O` [Compound 215, 4-(2-(1,1-difluoro-6-aza-spiro[2.5]octan-6-yl)-5-(ethylsulfonyl)pyridin-3-yl)-6-trideuteromethyl-1H-pyrrolo[2,3-c]pyridin-7(6H)-one], for which the IC50 on BRD2(1,2) amounted to 2.9 nM; at BRD4(1,2), 5.3 nM; at BRD3(1,2), 5 nM; on BRDT(D1), 16 nM.
As to `[2H]C([2H])([2H])n1cc(-c2cc(S(=O)(=O)N3CC[C@@H](O)C3)cnc2N2CCC3(CC2)CC3)c2cc[nH]c2c1=O` [Compound 242], the IC50 at BRD2(1,2) is 1.5 nM; at BRD4(1,2), 9.9 nM; on BRD3(1,2), 5.3 nM; at BRDT(D1) it was 19 nM; in the test on CWR22RV1 cells (CWR22Rv1, 144 h) it was 2.2 nM.
`[2H]C([2H])([2H])n1cc(-c2cc(S(=O)(=O)N3C[C@H](O)C[C@H]3C(=O)O)ccc2N2CCC3(CC2)CC3(F)F)c2cc[nH]c2c1=O` [Compound 252, (2S,4R)-1-((4-(1,1-difluoro-6-aza-spiro[2.5]octan-6-yl)-3-(6-trideuteromethyl-7-oxo-6,7-dihydro-1H-pyrrolo[2,3-c]pyridin-4-yl)phenyl)sulfonyl)-4-hydroxylpyrrolidin-2-carboxylic acid]: the IC50 was 160 nM at BRD2(1,2), 680 nM at BRD4(1,2), 240 nM on BRD3(1,2) and 830 nM at BRDT(D1).
Turning to `[2H]C([2H])([2H])n1cc(-c2cc(S(N)(=O)=O)c(F)cc2N2CCC3(CC2)CC3(F)F)c2cc[nH]c2c1=O` [Compound 217, 4-(1,1-difluoro-6-aza-spiro[2.5]octan-6-yl)-2-fluoro-5-(6-trideuteromethyl-7-oxo-6,7-dihydro-1H-pyrrolo[2,3-c]pyridin-4-yl)benzenesulfonamide], the IC50 on BRD2(1,2) was 1.4 nM and 1.5 nM; at BRD4(1,2), 6.2 nM and 4.9 nM; at BRD3(1,2) it was 4.9 nM and 4.5 nM; at BRDT(D1), 20 nM and 19 nM.
On to `[2H]C([2H])([2H])NS(=O)(=O)c1cnc(N2CCC3(CC2)CC3(F)F)c(-c2cn(C([2H])([2H])[2H])c(=O)c3[nH]ccc23)c1` [Compound 213, 6-(1,1-difluoro-6-aza-spiro[2.5]octan-6-yl)-N-trideuteromethyl-5-(6-trideuteromethyl-7-oxo-6,7-dihydro-1H-pyrrolo[2,3-c]pyridin-4-yl) pyridin-3-sulfonamide], for which the IC50 came out at 1.6 nM at BRD2(1,2), 4.1 nM at BRD4(1,2), 4.4 nM at BRD3(1,2) and 15 nM on BRDT(D1).
For `[2H]C([2H])([2H])n1cc(-c2cc(S(=O)(=O)NC)cnc2N2CCC3(CC2)CC3(F)F)c2cc[nH]c2c1=O` [Compound 212, 6-(1,1-difluoro-6-aza-spiro[2.5]octan-6-yl)-N-methyl-5-(6-trideuteromethyl-7-oxo-6,7-dihydro-1H-pyrrolo[2,3-c]pyridin-4-yl)pyridin-3-sulfonamide], the IC50 at BRD2(1,2) worked out at 1.7 nM; on BRD4(1,2) it was 4.3 nM; at BRD3(1,2), 4.6 nM; at BRDT(D1) it was 13 nM.
In the test with CWR22RV1 cells (CWR22Rv1, 144 h), `Cn1cc(-c2cc(C(=O)N3CCS(=O)(=O)CC3)ccc2N2CCC3(CC2)CC3)c2cc[nH]c2c1=O` [Compound 224, 4-(5-(1,1-dioxothiomorpholine-4-carbonyl)-2-(6-aza-spiro[2.5]octan-6-yl)phenyl)-6-methyl-1H-pyrrolo[2,3-c]pyridin-7(6H)-one] had an IC50 of 62 nM.
Regarding `Cn1cc(-c2cc(S(C)(=O)=O)ccc2N2CCC3(CC2)CC3C#N)c2cc[nH]c2c1=O` (stereo not drawn) [Compound 181, 6-(2-(6-methyl-7-oxo-6,7-dihydro-1H-pyrrolo[2,3-c]pyridin-4-yl)-4-(methylsulfonyl)phenyl)-6-aza-spiro[2.5]octan-1-cyanide], 90 nM corresponded to half-maximal inhibition in the test with CWR22RV1 cells (144 h) (IC50).
`[2H]C([2H])([2H])n1cc(-c2cc(S(N)(=O)=O)ccc2N2CCC3(CC2)CC3)c2cc[nH]c2c1=O` [Compound 201, 3-(6-trideuteromethyl-7-oxo-6,7-dihydro-1H-pyrrolo[2,3-c]pyridin-4-yl)-4-(6-azaspiro[2.5]octan-6-yl)benzenesulfonamide] came in with an IC50 with CWR22RV1 cells (CWR22Rv1, 144 h) of 1.4 nM.
Molecule `Cn1cc(-c2cc(S(C)(=O)=O)ccc2N2CCCC3(CC3)C2)c2cc[nH]c2c1=O` [Compound 27, 6-methyl-4-(5(methylsulfonyl)-2-(5-aza-spiro[2.5]octan-5-yl)phenyl)-1H-pyrrolo[2,3-c]pyridin-7(6H)-one] yielded an IC50 in the test on CWR22RV1 cells (CWR22Rv1, 144 h) of 31 nM.
Take `[2H]C([2H])([2H])n1cc(-c2cc(NS(=O)(=O)C3CC3)ccc2N2CC3(CCC3)C2)c2cc[nH]c2c1=O` [Compound 43, N-(3-(6-trideuteromethyl-7-oxo-6,7-dihydro-1H-pyrrolo[2,3-c]pyridin-4-yl)-4-(2-aza-spiro[3.3]heptan-2-yl)phenyl)cyclopropanesulfonamide]: the midpoint of inhibition with CWR22RV1 cells (CWR22Rv1, 144 h), the IC50, lay at 50 nM.
